Test results reported in paper PMC4192545, “Suramin Inhibits Hsp104 ATPase and Disaggregase Activity” (PLoS ONE, 2014).

Columns and labels:
Hsp104^WT = molecular target: T1, Hsp104^WT (Saccharomyces cerevisiae, UniProt P31539); test: Manual ATPase assay, Hsp104^WT; assay type: biochemical, yeast; conditions: for Normalized ATPase Activity: Figure 2B
T1 construct: made in house; host or cells: E. coli BL21-DE3 RIL
Procedure: (§1) Wild-type or mutant Hsp104 (0.25 µM monomer) in ATPase buffer (20 mM HEPES-KOH pH 7.4, 20 mM NaCl and 10 mM MgCl2) was incubated for 60 or 10 min at 25°C in the presence of ATP (1 mM) as noted. ATPase activity was assessed by the release of inorganic phosphate determined by using a malachite green phosphate detection kit (Innova).

Hsp104 = molecular target: T2, Hsp104 (Saccharomyces cerevisiae, UniProt P31539); test: Gel filtration of Hsp104 (hexamerization); parameters: species or system yeast; conditions: Suramin 100 µM, with or without ATP 1 mM
T2 construct: made in house; host or cells: E. coli BL21-DE3 RIL
T2 sequence (P31539 whole entry): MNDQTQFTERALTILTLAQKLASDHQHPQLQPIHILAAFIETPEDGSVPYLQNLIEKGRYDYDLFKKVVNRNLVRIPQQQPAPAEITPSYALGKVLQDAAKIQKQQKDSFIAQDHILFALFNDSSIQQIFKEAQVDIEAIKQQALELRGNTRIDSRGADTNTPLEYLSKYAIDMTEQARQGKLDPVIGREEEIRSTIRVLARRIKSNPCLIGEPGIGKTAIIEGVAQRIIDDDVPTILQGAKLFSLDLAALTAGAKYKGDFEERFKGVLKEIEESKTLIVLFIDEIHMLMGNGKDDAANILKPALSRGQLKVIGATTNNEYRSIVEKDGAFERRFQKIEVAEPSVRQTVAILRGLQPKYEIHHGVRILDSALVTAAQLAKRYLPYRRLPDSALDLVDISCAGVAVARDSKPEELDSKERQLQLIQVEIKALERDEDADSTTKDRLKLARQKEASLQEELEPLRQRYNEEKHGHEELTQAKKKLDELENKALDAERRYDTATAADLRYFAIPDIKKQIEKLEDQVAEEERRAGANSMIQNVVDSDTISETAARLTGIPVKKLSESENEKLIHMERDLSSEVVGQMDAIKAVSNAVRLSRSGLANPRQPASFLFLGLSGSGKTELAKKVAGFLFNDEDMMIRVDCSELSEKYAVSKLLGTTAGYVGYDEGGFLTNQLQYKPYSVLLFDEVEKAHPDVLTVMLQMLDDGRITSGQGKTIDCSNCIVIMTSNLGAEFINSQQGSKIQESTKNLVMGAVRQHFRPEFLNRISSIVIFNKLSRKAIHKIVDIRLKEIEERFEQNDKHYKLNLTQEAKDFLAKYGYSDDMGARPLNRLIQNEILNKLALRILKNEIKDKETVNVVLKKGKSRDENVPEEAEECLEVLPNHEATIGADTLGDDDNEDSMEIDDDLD
Procedure: Hsp104 was diluted into ATPase buffer with or without Suramin (100 µM) in the presence or absence of ATP (1 mM). The Hsp104 concentration was adjusted to 120 µM monomer and 20 µL of sample were fractionated by a Superdex 200 10/300 column (GE Healthcare Life Sciences, Piscataway, NJ) at room temperature and at a flow rate of 0.5 mL per minute in line with an Optilab T-rEX Refractive Interferometer (Wyatt Technologies, Santa Barbara, CA). Molecular weight markers were purchased from Bio-Rad Laboratories (Hercules, CA).

Hsp104^N728A = molecular target: T3, Hsp104^N728A (Saccharomyces cerevisiae, UniProt P31539, N728A); test: ATPase assay, Hsp104^N728A; assay type: biochemical, yeast; conditions: read-out: Hsp104^N728A ATPase activity relative to uninhibited protein
T3 construct: made in house; host or cells: E. coli BL21-DE3 RIL
T3 sequence (P31539 whole entry N728A): as the sequence (P31539 whole entry) above, with N728A counted along it
Procedure: as §1
(§2) Figure 7 Hsp104 variants respond differently to Suramin than Hsp104^WT. (A) Hsp104 variants (0.25 µM monomer) were incubated for 10 min with ATP (1 mM) and varying concentrations of Suramin. The amount of Pi produced was measured by absorbance at 635 nm. Absorbance values were normalized to the absorbance produced by each Hsp104 variant in the absence of inhibitor. Values represent mean ±S.D. (n = 6). (B) Urea-denatured firefly luciferase aggregates were incubated for 90 min at 25°C with Hsp104 variants (1 µM hexamer) plus 1∶1 mixtures of ATP and ATPγS (or ATP alone) and varying concentrations of Suramin. Luciferase reactivation was then determined and normalized to untreated disaggregase activity for each variant in the presence of ATPγS: ATP (or ATP alone). 1∶1 mixtures of ATP and ATPγS were used for Hsp104^WT and Hsp104^T317A, while ATP alone was used for Hsp104^A503V and Hsp104^N728A. Values represent mean ±S.D. (n = 6–12).

Δpdr5 yeast [1] = test: [PSI+] propagation in Δpdr5 yeast; assay type: cell-based; conditions: Suramin 100 µM, data not shown
[2] = molecular target: T4, Quantilum recombinant luciferase (Photinus pyralis, UniProt P08659); test: Luciferase activity determination (native luciferase control); assay type: biochemical; conditions: Suramin 100 µM, luciferase 50 nM; data not shown
T4 construct: purchased Promega (Madison, WI)
T4 sequence (P08659 whole entry): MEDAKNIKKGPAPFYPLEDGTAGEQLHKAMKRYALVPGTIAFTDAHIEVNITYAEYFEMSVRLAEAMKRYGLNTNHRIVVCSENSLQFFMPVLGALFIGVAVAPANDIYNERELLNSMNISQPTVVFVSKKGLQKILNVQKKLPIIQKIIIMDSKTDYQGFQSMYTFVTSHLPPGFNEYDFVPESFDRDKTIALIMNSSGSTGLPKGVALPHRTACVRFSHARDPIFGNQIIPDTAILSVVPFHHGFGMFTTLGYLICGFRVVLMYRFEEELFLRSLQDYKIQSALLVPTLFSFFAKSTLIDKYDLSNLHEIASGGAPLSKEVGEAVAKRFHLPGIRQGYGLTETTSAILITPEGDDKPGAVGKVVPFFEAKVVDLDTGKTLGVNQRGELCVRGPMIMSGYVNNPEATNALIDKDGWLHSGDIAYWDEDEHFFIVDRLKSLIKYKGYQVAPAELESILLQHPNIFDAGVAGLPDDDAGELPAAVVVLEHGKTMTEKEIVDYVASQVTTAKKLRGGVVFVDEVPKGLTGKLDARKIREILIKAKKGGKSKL
Procedure: Quantilum recombinant luciferase (native) was diluted to 5000, 500, 50, 5 and 0.5 nM in the presence or absence of Suramin. Dilutions were mixed with luciferase assay system (Promega). Luciferase activity was assessed by luminescence measured on a Safire^2 microplate reader.

Δpdr5 yeast [3] = test: Thermotolerance of Δpdr5 yeast; assay type: cell-based; conditions: Suramin 100 µM, data not shown
[4] = molecular target: T5, Hsp104 with Hsp70 and Hsp40 (Saccharomyces cerevisiae, UniProt P31539); test: Luciferase reactivation with Hsp70, Hsp40 and Hsp104 plus ATP; assay type: biochemical; conditions: for Normalized Luciferase Refolding Activity: Figure 3D, 70/40/104 (Hsp70 1 µM, Hsp40 1 µM, ATP)
T5 construct: host or cells: E. coli BL21-DE3 RIL (Hsp104)
T5 sequence (P31539 whole entry): as the sequence (P31539 whole entry) above
Procedure: Luciferase reactivation was performed as described, [37]. To assemble aggregates, firefly luciferase (50 µM) in luciferase refolding buffer (LRB, 25 mM HEPES-KOH, 7.4, 150 mM KAOc, 10 mM MgAOc, 10 mM DTT) with 6 M urea was incubated at 30°C for 20 min. Luciferase was then rapidly diluted 100-fold into LRB, divided into 100 µL aliquots, snap frozen in liquid N2, and stored at −80°C. For reactivation assays, aggregated luciferase (50 nM) was incubated with Hsp104 (1 µM hexamer), plus 2.6 mM ATPγS, 2.6 mM ATP and an ATP regeneration system (1 mM creatine phosphate, 0.25 µM creatine kinase (Roche Applied Science)) for 90 minutes at 25°C. Luciferase assay system was purchased from Promega. Luciferase activity was assessed by luminescence measured on a Safire^2 microplate reader (Tecan, Männedorf, Switzerland). The half maximal inhibitory concentration (IC50) was calculating by fitting luciferase-refolding data at different Suramin concentrations with Prism (GraphPad Software, Inc., La Jolla, CA).
(A) Urea-denatured firefly luciferase aggregates were incubated for 90 min at 25°C with Hsp104 (1 µM hexamer) plus 1∶1 mixtures of ATP and ATPγS and varying concentrations of GdmCl. Luciferase reactivation was then determined and converted to % WT disaggregase activity in the presence of ATPγS: ATP. Values represent mean ±S.D. (n = 3–6). (B) Reactions were performed as in (A) except varying concentrations of Suramin were used. Values represent mean ±S.D. (n = 6–10). (C) Half maximal inhibitory concentration (IC50) for Suramin-mediated inhibition of Hsp104. IC50 was calculating by fitting luciferase-refolding data at different Suramin concentrations. (D) Reactions were performed as in (A) except that 1∶1 mixtures of ATP and ATPγS were replaced with Hsp70 (1 µM) and Hsp40 (1 µM) plus ATP. The Hsp104 alone condition (yellow bars) was carried out with 1∶1 mixtures of ATP and ATPγS as in (A). Each condition is normalized to the refolding activity in each corresponding condition in the absence of inhibitor.

Hsp104^T317A = molecular target: T6, Hsp104^T317A (Saccharomyces cerevisiae, UniProt P31539, T317A); test: ATPase assay, Hsp104^T317A; assay type: biochemical, yeast; conditions: read-out: Hsp104^T317A ATPase activity relative to uninhibited protein
T6 construct: made in house; host or cells: E. coli BL21-DE3 RIL
T6 sequence (P31539 whole entry T317A): as the sequence (P31539 whole entry) above, with T317A counted along it
Procedure: as §1, §2

T1 sequence (P31539 whole entry): as the sequence (P31539 whole entry) above

## Cc1ccc(C(=O)Nc2ccc(S(=O)(=O)O)c3cc(S(=O)(=O)O)cc(S(=O)(=O)O)c23)cc1NC(=O)c1cccc(NC(=O)Nc2cccc(C(=O)Nc3cc(C(=O)Nc4ccc(S(=O)(=O)O)c5cc(S(=O)(=O)O)cc(S(=O)(=O)O)c45)ccc3C)c2)c1 [Suramin]
Hsp104^WT; 10 min reaction, ATP 1 mM
  IC50: ~3.39 µM
Hsp104^WT; 60 min, ATP 1 mM, varying concentrations, Figure 2A
  Effect on Hsp104 ATPase activity (Pi produced), manual assay: greatly diminished the amount of Pi produced in a concentration-dependent manner
Hsp104^WT; Hsp104 WT
  Inhibitor concentration of maximal ATPase inhibition: 25 µM
Hsp104^WT; Suramin 1 µM, 10 min, ATP 1 mM
  Normalized ATPase Activity: 1.08
Hsp104^WT; Suramin 5 µM, 10 min, ATP 1 mM
  Normalized ATPase Activity: 0.62
Hsp104^WT; Suramin 10 µM, 10 min, ATP 1 mM
  Normalized ATPase Activity: 0.37
Hsp104^WT; Suramin 25 µM, 10 min, ATP 1 mM
  Normalized ATPase Activity: 0.27
Hsp104^WT; Suramin 25 µM, 10 min, read-out: Hsp104^WT ATPase activity relative to uninhibited Hsp104
  activity at 25 µM: 30%
Hsp104^WT; Suramin 50 µM, 10 min, ATP 1 mM
  Normalized ATPase Activity: 0.29
Hsp104^WT; Suramin 100 µM, 10 min
  inhibition at 100 µM: > 60%
Hsp104^WT; Suramin 100 µM, 10 min, ATP 1 mM
  Normalized ATPase Activity: 0.33
Hsp104^WT; Suramin 100 µM, 10 min, read-out: Hsp104^WT ATPase activity relative to uninhibited protein
  activity at 100 µM: ~35%
Hsp104^WT; Suramin 250 µM, 10 min, ATP 1 mM
  Normalized ATPase Activity: 0.37
Hsp104
  Effect on Hsp104 hexamerization (gel filtration elution profile): does not interfere with hexamerization
Hsp104^N728A
  activity at 100 µM: ~75%
Δpdr5 yeast [1]
  Effect on [PSI+] propagation: impaired neither
[2]
  Effect on luciferase activity itself: did not inhibit luciferase activity
Δpdr5 yeast [3]
  Effect on thermotolerance: impaired neither
[4]; Suramin 25 µM
  Normalized Luciferase Refolding Activity: 0.12
[4]; Suramin 100 µM
  Normalized Luciferase Refolding Activity: 0.03
[4]; disaggregation reaction with Hsp70 and Hsp40
  Rescue of inhibition by Hsp70 and Hsp40: not rescued by inclusion of Hsp70 and Hsp40
Hsp104^T317A
  activity at 100 µM: ~65%
